From US9192166B2, “Compositions comprising a streptomyces-based biological control agent and an insecticide” (BAYER […], priority 2013, dated 2015)

Legend:
Type in all cases: in vivo
[1] = test system: mustard beetle larvae (Phaedon cochleariae); test: Phaedon cochleariae spray test
Excerpt: The fermentation product is referred to in the examples below as NRRL B-50550.
Solvent: 78.0 parts by weight of acetone

[2] = test system: fall armyworm larvae (Spodoptera frugiperda); test: Spodoptera frugiperda spray test
Excerpt: (§1) Emulsifier: alkylaryl polyglycol ether

[3] = test system: two spotted spidermite (Tetranychus urticae); test: Tetranychus urticae spray test, OP-resistant
Excerpt: as §1

[4] = test system: green peach aphid (Myzus persicae); test: Myzus persicae spray test (Chinese cabbage leaf disks)
Excerpt: as §1
100% means all aphids have been killed; 0% means none of the aphids have been killed.

[5] = test system: green peach aphid (Myzus persicae); test: Myzus persicae spray test (pepper leaves); settings: 0.5 ppm

## Cc1c(F)c(F)c(COC(=O)[C@@H]2[C@H](/C=C(\Cl)C(F)(F)F)C2(C)C)c(F)c1F (racemic) [Tefluthrin]
[1]; 40 ppm
  Efficacy in % after 2d: 0%

## CNC(=O)c1cc(C#N)cc(C)c1NC(=O)c1cc(Cn2nnc(C(F)(F)F)n2)nn1-c1ncccc1Cl [1-(3-chloropyridin-2-yl)-N-[4-cyano-2-methyl-6-(methylcarbamoyl)phenyl]-3-{[5-(trifluoromethyl)-2H-tetrazol-2-yl]methyl}-1H-pyrazole-5-carboxamide]
[1]; 0.128 ppm
  Efficacy in % after 6d: 0%
[1]; 0.64 ppm
  Efficacy in % after 2d: 50%
[2]; 0.64 ppm
  Efficacy in % after 6d: 33%

## Spinetoram
[2]; 0.64 ppm
  Efficacy in % after 2d: 0%

## Cc1cc(F)c(-n2nc(C(F)(F)F)nc2N)cc1[S+]([O-])CC(F)(F)F (stereo not shown) [1-{2-fluoro-4-methyl-5-[(2,2,2-trifluorethyl)sulfinyl]phenyl}-3-(trifluoromethyl)-1H-1,2,4-triazol-5-amine]
[3]; 3.2 ppm
  Efficacy in % after 6d: 0%

## Spinosad
[1]; 80 ppm
  Efficacy in % after 2d: 50%
[2]; 0.64 ppm
  Efficacy in % after 6d: 0%

## CNC(=O)c1cc(Cl)cc(C)c1NC(=O)c1cc(Br)nn1-c1ncccc1Cl [Chlorantraniliprole]
[4]; 3.2 ppm
  Efficacy in % after 1d: 0%
[3]; 16 ppm
  Efficacy in % after 6d: 0%

## O=[N+]([O-])NC1=NCCN1Cc1ccc(Cl)nc1 [Imidacloprid]
[3]; 2 ppm
  Efficacy in % after 6d: 0%

## CNC(=O)Oc1cc(C)c(SC)c(C)c1 [Methiocarb]
[4]; 2000 ppm
  Efficacy in % after 6d: 0%

## N#Cc1nn(-c2c(Cl)cc(C(F)(F)F)cc2Cl)c(N)c1[S+]([O-])C(F)(F)F (stereo not shown) [Fipronil]
[2]; 16 ppm
  Efficacy in % after 6d: 0%

## CNC(=O)c1cc(C#N)cc(C)c1NC(=O)c1cc(Br)nn1-c1ncccc1Cl [Cyantraniliprole]
[4]; 0.64 ppm
  Efficacy in % after 6d: 0%
[4]; 3.2 ppm
  Efficacy in % after 6d: 0%
[4]; 16 ppm
  Efficacy in % after 1d: 0%
[1]; 0.64 ppm
  Efficacy in % after 6d: 0%
[3]; 80 ppm
  Efficacy in % after 6d: 0%

## CC(c1ccc(C(F)(F)F)nc1)S(C)(=O)=NC#N (stereo not shown) [Sulfoxaflor]
[4]; 0.64 ppm
  Efficacy in % after 1d: 0%

## N#C/N=C1\SCCN1Cc1ccc(Cl)nc1 [Thiacloprid]
[5]
  Efficacy in % after 2d: 40%
  Efficacy in % after 3d: 20%
  Efficacy in % after 7d: 10%

## Cc1cc(C(F)(C(F)(F)F)C(F)(F)F)ccc1NC(=O)c1cccc(I)c1C(=O)NC(C)(C)CS(C)(=O)=O [Flubendiamide]
[2]; 3.2 ppm
  Efficacy in % after 2d: 33%

## CC1(C)C(C=C(Cl)Cl)C1C(=O)OC(C#N)c1ccc(F)c(Oc2ccccc2)c1 (stereo not drawn) [β-Cyfluthrin, beta-Cyfluthrin]
[4]; 1.6 ppm
  Efficacy in % after 6d: 0%
[1]; 1.6 ppm
  Efficacy in % after 6d: 0%
[2]; 1.6 ppm
  Efficacy in % after 6d: 0%

## CS/C(C)=N\OC(=O)N(C)SN(C)C(=O)O/N=C(\C)SC [Thiodicarb]
[2]; 40 ppm
  Efficacy in % after 2d: 0%

## CN/C(=N\[N+](=O)[O-])NCc1cnc(Cl)s1 [Clothianidin]
[4]; 0.32 ppm
  Efficacy in % after 6d: 0%
